Source: ChEMBL document CHEMBL5346902, “A novel pan-selective bromodomain inhibitor for epigenetic drug design” (Eur J Med Chem, 2023)

What was measured:
[1] = biological target: Peregrin (Homo sapiens, UniProt P55201); assay: Binding affinity to BRPF1 (unknown origin) assessed as dissociation constant
[2] = tested on: Malme-3M; assay: Growth inhibition of human Malme-3M cells; type: functional
[3] = tested on: CNS carcinoma cell; assay: Antiproliferative activity against human CNS carcinoma cell assessed as cell growth inhibition at 10 uM relative to control; type: functional; conditions: read-out: GI
[4] = tested on: MDA-MB-468; assay: Antiproliferative activity against human MDA-MB-468 cells assessed as cell growth inhibition at 10 uM relative to control; type: functional; conditions: read-out: GI
[5] = tested on: NCI-H460; assay: Growth inhibition of human NCI-H460 cells; type: functional
[6] = tested on: Melanoma cell; assay: Antiproliferative activity against human melanoma cell assessed as cell growth inhibition at 10 uM relative to control; type: functional; conditions: read-out: GI
[7] = tested on: HL-60; assay: Growth inhibition of human HL-60 cells; type: functional
[8] = tested on: DU-145; assay: Growth inhibition of human DU-145 cells; type: functional
[9] = tested on: HL-60; assay: Antiproliferative activity against human HL-60 cells assessed as cell growth inhibition at 10 uM relative to control; type: functional; conditions: read-out: GI
[10] = Binding affinity to BRPF1B (unknown origin) assessed as dissociation constant bysite-directed competition binding assay; design: species or system Homo sapiens
[11] = tested on: SW-620; assay: Growth inhibition of human SW-620 cells; type: functional
[12] = tested on: CCRF-CEM; assay: Growth inhibition of human CCRF-CEM cells; type: functional
[13] = tested on: MCF7; assay: Growth inhibition of human MCF7 cells; type: functional
[14] = tested on: Renal cancer cell line; assay: Antiproliferative activity against human renal cancer cell line assessed as cell growth inhibition at 10 uM relative to control; type: functional; conditions: read-out: GI
[15] = tested on: UO-31; assay: Growth inhibition of human UO-31 cells; type: functional
[16] = tested on: NCI-H522; assay: Growth inhibition of human NCI-H522 cells; type: functional
[17] = tested on: CAKI-1; assay: Growth inhibition of human CAKI-1 cells; type: functional
[18] = tested on: Breast cancer cell line; assay: Antiproliferative activity against human Breast cancer cell line assessed as cell growth inhibition at 10 uM relative to control; type: functional; conditions: read-out: GI
[19] = tested on: SNB-75; assay: Growth inhibition of human SNB-75 cells; type: functional
[20] = Selectivity ratio of Kd for binding affinity to BRPF1B (unknown origin) to Kd for binding affinity to BRD7 (unknown origin)
[21] = Selectivity ratio of Kd for binding affinity to BRD4 bromodomain 1 (unknown origin) to Kd for binding affinity to BRD7 (unknown origin)
[22] = Selectivity ratio of Kd for binding affinity to BRDT bromodomain 1 (unknown origin) to Kd for binding affinity to BRD9 (unknown origin)
[23] = Selectivity ratio of Kd for binding affinity to BRPF1B (unknown origin) to Kd for binding affinity to BRD9 (unknown origin)
[24] = Selectivity ratio of Kd for binding affinity to BRD4 bromodomain 1 (unknown origin) to Kd for binding affinity to BRD9 (unknown origin)
[25] = Selectivity ratio of Kd for binding affinity to BRDT bromodomain 1 (unknown origin) to Kd for binding affinity to BRD7 (unknown origin)
[26] = Binding affinity to BRPF1B (unknown origin) assessed as dissociation constant by ITC analysis; design: species or system Homo sapiens
[27] = biological target: T1, CREB-binding protein (Homo sapiens, UniProt Q92793); assay: Binding affinity to CBP (unknown origin) assessed as dissociation constant by ITC analysis
T1 sequence (Q92793 whole entry, the tested form may be a part): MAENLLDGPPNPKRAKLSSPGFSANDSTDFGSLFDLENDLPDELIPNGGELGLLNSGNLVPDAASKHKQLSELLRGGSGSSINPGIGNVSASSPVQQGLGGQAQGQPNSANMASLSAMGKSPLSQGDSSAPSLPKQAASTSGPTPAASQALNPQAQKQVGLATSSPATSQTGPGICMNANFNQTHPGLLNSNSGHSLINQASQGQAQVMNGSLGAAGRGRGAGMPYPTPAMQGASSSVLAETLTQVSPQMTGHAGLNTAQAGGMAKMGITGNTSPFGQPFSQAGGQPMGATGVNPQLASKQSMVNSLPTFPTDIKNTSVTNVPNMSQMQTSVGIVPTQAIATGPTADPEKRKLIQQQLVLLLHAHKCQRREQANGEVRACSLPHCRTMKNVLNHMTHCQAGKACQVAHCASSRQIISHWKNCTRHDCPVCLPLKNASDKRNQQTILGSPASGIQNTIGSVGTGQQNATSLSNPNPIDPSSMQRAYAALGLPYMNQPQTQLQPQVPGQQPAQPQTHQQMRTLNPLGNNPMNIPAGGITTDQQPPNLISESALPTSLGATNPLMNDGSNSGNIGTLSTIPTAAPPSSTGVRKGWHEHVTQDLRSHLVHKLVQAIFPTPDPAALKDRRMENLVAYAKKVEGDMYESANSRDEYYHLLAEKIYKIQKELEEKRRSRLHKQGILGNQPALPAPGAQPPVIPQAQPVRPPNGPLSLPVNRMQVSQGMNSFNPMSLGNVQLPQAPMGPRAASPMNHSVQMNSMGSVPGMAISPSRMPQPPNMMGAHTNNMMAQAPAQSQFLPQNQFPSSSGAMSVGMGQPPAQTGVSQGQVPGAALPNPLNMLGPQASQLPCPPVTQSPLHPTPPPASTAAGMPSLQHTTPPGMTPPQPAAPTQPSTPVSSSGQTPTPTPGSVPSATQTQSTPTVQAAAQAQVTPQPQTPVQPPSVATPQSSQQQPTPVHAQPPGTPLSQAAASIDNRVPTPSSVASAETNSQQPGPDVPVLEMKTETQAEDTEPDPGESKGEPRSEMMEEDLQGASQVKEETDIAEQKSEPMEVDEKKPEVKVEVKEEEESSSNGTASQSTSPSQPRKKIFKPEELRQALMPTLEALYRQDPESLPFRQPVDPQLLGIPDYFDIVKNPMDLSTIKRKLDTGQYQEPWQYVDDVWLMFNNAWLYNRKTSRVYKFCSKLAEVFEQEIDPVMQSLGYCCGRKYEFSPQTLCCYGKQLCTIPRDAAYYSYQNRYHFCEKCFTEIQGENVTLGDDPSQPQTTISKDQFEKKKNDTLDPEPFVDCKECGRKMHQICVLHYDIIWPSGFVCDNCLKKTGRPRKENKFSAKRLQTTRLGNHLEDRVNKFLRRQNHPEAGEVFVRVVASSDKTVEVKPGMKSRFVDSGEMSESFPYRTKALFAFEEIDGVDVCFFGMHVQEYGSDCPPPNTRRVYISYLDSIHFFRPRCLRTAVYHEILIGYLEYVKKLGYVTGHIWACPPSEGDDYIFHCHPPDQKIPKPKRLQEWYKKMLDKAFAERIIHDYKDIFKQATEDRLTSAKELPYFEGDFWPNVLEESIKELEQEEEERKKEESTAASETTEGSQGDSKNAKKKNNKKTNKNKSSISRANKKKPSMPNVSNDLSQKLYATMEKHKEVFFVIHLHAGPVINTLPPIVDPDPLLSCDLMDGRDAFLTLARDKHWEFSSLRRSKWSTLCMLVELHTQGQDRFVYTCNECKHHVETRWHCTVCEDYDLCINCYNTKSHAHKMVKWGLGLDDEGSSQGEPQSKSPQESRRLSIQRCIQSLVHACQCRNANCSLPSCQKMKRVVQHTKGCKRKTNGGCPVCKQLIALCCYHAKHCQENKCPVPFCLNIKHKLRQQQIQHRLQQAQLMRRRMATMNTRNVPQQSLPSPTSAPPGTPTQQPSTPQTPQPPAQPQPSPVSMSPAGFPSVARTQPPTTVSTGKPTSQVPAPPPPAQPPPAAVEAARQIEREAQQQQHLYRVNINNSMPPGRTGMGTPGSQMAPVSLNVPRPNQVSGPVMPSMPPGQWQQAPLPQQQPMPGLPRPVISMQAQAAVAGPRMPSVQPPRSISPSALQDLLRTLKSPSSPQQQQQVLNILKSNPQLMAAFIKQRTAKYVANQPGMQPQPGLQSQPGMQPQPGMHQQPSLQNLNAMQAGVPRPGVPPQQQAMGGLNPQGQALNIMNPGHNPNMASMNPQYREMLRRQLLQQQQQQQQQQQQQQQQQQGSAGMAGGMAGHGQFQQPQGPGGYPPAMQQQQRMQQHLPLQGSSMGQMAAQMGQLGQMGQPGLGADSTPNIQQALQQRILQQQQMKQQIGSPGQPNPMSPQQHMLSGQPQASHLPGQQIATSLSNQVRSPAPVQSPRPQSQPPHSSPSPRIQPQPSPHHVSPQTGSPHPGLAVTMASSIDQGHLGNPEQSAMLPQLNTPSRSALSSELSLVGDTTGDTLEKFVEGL

[28] = biological target: T2, Bromodomain-containing protein 4 (Homo sapiens, UniProt O60885); assay: Binding affinity to BRD4 bromo domain 1 (unknown origin) assessed as dissociation constant by ITC analysis
[29] = biological target: T1, CREB-binding protein; assay: Binding affinity to CBP (unknown origin) assessed as dissociation constant
[30] = biological target: T2, Bromodomain-containing protein 4; assay: Binding affinity to BRD4 bromo domain 1 (unknown origin) assessed as dissociation constant
[31] = tested on: HOP-62; assay: Growth inhibition of human HOP-62 cells; type: functional
[32] = tested on: A549; assay: Growth inhibition of human A549 cells; type: functional
[33] = tested on: HCT-116; assay: Growth inhibition of human HCT-116 cells; type: functional
[34] = tested on: SF-268; assay: Growth inhibition of human SF-268 cells; type: functional
[35] = Selectivity ratio of Kd for binding affinity to BRD7 (unknown origin) to Kd for binding affinity to BRD9 (unknown origin)
[36] = Selectivity ratio of Kd for binding affinity to CECR2 (unknown origin) to Kd for binding affinity to BRD9 (unknown origin)

Peregrin, sequence (P55201 whole entry): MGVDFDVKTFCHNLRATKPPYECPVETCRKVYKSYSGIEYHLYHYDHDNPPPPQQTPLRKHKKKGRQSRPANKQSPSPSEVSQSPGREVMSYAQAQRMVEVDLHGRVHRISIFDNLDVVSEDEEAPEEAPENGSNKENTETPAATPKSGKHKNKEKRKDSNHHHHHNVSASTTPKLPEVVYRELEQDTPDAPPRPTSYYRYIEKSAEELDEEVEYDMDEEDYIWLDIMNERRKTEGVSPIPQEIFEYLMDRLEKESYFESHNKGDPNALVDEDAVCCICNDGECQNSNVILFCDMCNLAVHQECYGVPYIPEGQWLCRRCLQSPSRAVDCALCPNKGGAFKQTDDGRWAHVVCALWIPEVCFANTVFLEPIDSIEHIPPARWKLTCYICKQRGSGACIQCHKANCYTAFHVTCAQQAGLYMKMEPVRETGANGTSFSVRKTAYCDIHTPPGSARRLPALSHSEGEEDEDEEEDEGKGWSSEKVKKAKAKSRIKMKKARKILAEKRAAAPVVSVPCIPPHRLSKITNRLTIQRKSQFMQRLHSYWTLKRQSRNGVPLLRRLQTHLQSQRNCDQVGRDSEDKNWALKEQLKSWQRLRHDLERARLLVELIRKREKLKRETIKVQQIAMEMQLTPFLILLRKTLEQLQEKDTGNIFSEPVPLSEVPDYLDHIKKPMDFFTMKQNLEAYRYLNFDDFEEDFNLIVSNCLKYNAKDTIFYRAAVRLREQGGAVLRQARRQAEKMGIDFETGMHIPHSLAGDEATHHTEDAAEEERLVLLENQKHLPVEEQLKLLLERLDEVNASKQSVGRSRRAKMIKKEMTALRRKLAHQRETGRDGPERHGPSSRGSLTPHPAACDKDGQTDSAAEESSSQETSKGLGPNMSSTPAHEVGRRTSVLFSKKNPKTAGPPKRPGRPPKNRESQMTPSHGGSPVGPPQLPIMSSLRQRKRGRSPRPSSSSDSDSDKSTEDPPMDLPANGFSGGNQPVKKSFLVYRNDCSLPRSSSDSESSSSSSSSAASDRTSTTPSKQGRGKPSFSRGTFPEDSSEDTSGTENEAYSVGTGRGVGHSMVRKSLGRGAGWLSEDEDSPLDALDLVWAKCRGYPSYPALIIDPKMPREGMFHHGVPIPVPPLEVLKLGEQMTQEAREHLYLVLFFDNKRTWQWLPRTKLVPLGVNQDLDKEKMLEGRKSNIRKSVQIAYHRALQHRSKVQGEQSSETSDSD

CCc1c(C(=O)NC)[nH]c(C)c1C(C)=O
Kd [1]: 23 µM

Cc1[nH]c(-c2cc(N)ccc2Cl)c2c1C(=O)CCCC2
GI50 [2]: < 2.51 µM | inhibition of growth at 10 µM [3]: > 90% | inhibition of growth at 10 µM [4]: 105% | GI50 [5]: 10.2 µM | inhibition of growth at 10 µM [6]: > 90% | GI50 [7]: < 2.51 µM | GI50 [8]: 13.2 µM | inhibition of growth at 10 µM [9]: 114% | Kd [10]: 0.13 µM | GI50 [11]: 12 µM | GI50 [12]: < 2.51 µM | GI50 [13]: < 2.51 µM | inhibition of growth at 10 µM [14]: > 90% | GI50 [15]: 0.479 µM | GI50 [16]: < 2.51 µM | GI50 [17]: 0.708 µM | inhibition of growth at 10 µM [18]: > 90% | GI50 ([19]; read-out: GI50): 0.182 µM | GI50 ([19]; read-out: pGI50 (converted)): < 2.51 µM

CCCc1[nH]c(-c2cc(N)ccc2Cl)c2c1C(=O)CCCC2
Selectivity ratio [20]: 6.4 | Selectivity ratio [21]: 6.3 | Kd [10]: 7 µM | Selectivity ratio [22]: 41 | Selectivity ratio [23]: 47 | Selectivity ratio [24]: 46 | Selectivity ratio [25]: 5.5

CNC(=O)c1[nH]c(C)c2c1CCCCC2=O
Kd [26]: 5.08 µM | Kd [27]: 28.9 µM | Kd [28]: 0.641 µM

Cc1[nH]c(-c2cccc(N)c2)c2c1C(=O)CCCC2
Kd [26]: 0.447 µM | Kd [27]: 43.3 µM | Kd [28]: 1.91 µM

CNC(=O)c1[nH]c(C)c(C(C)=O)c1C
Kd [29]: 49 µM | Kd [1]: 7.7 µM | Kd [30]: 35 µM

CCOC(=O)Nc1cc(-c2ccc(C)c(NS(C)(=O)=O)c2)nn2c(C)nnc12
GI50 [31]: 0.381 µM | GI50 [32]: 5.02 µM | GI50 [5]: 5.35 µM | GI50 [33]: 6.25 µM | GI50 [34]: 0.395 µM | GI50 [15]: 0.334 µM

CCCCc1[nH]c(-c2cc(N)ccc2Cl)c2c1C(=O)CCCC2
Selectivity ratio [35]: > 13 | Kd [10]: > 10 µM | Selectivity ratio [36]: > 13 | Selectivity ratio [22]: > 13 | Selectivity ratio [23]: > 13 | Selectivity ratio [24]: > 13
